This passage reports IC50 and IC90 results from ChEMBL document CHEMBL4483862, “Open-source discovery of chemical leads for next-generation chemoprotective antimalarials” (2018).

The test system of the assay is Plasmodium berghei. Kind of assay: Luciferase/luciferin-expressing antifolate-resistant parasites were used to infect a culture of HepG2 cells that were pre-incubated with compounds. Infected hepatocytes emit light due to the luciferase reaction. Assay results are presented as the percent inhibition of light emission compared to control. […]. The settings on record: sporozoite; for IC90: read-out: LUCIFERASE INFECTION ASSAY - IC90. The format is functional.

Setting [1] is: read-out: LUCIFERASE INFECTION ASSAY - IC50.

As usually defined, the IC50 is the concentration needed to halve the response being measured. By IC90 is commonly meant the concentration needed for an effect of 90%. For `Cc1ccc2nc(-c3ccc(NC(=O)COC(=O)c4oc5ccccc5c4COC(C)C)cc3)sc2c1`, the IC90 is more than 10 µM. Besides, under “FFLUC_HILL_SLOPE 11.7, FFLUC_R_SQUARED 0.82, PBLUC_HILL_SLOPE 2.16, PBLUC_R_SQUARED 0.259, read-out: LUCIFERASE INFECTION ASSAY - IC50”, the IC50 worked out at 9.03 µM.

For `COc1ccc(-c2nn(-c3ccccc3)cc2/C=C/C(=O)N2CCc3ccccc32)cc1OC`, the IC90 is more than 10 µM. Moreover, the IC50 under setting [1] was more than 10 µM.

With `Cc1c(C)n(Cc2ccccc2)c2ncn3nc(-c4ccccn4)nc3c12`, the IC90 was more than 9.31 µM. Under setting [1], the IC50 was more than 9.31 µM.

Turning to `CN(CC(=O)Nc1ccc(Cl)c(S(=O)(=O)N2CCOCC2)c1)C(=O)/C=C/c1cccs1`, the IC90 is more than 10 µM. Moreover, for the setting “HEPG2TOX_HILL_SLOPE 0.594, HEPG2TOX_R_SQUARED 0.62, read-out: LUCIFERASE INFECTION ASSAY - IC50”, the IC50 was more than 10 µM.

With `O=C(Nc1cccc(/C=C/c2ccc3cccc(O)c3n2)c1)C(F)(F)F`, the IC90 was more than 10 µM. In addition, the IC50 (PBLUC_HILL_SLOPE 13.5, PBLUC_R_SQUARED 0.34, read-out: LUCIFERASE INFECTION ASSAY - IC50) was determined as 8.84 µM.

Regarding `Cc1ccc(-c2cnn3c(N4CCCC4)cc(C)nc23)cc1`, the 90% effect concentration (IC90) turned out to be 9.26 µM. Further, the IC50 (PBLUC_HILL_SLOPE 2.02, PBLUC_R_SQUARED 0.442, read-out: LUCIFERASE INFECTION ASSAY - IC50) worked out at 3.13 µM.

Turning to `COc1ccc(Nc2n[nH]c(NC(=O)Cc3c(Cl)cccc3Cl)c2C#N)cc1`, the IC90 came out at 0.506 µM. For the same molecule, under “FFLUC_HILL_SLOPE 14.5, FFLUC_R_SQUARED 0.631, HEPG2TOX_HILL_SLOPE 1.37, HEPG2TOX_R_SQUARED 0.939, PBLUC_HILL_SLOPE 1.1, PBLUC_R_SQUARED 0.834, read-out: LUCIFERASE INFECTION ASSAY - IC50”, the IC50 was determined as 0.069 µM.

In the case of `CC(C)N(c1ccccc1)c1ccc(NC(=O)Nc2ccccc2)cc1`, the IC90 was 3.58 µM. Further, the IC50 (PBLUC_HILL_SLOPE 27.4, PBLUC_R_SQUARED 0.0577, read-out: LUCIFERASE INFECTION ASSAY - IC50) was determined as 3.31 µM.

With `O=C(COc1ccccc1SCc1ccc(Cl)cc1)NNC(=O)c1ccc(Cl)cc1`, the IC90 was more than 7.15 µM. For the same molecule, the 50% inhibitory concentration (IC50) under setting [1] was more than 7.15 µM.

Turning to `O=C(Nc1ccc2nc(-c3ccccc3Cl)[nH]c2c1)c1ccc(=O)[nH]n1`, the IC90 was 4.84 µM. Moreover, for the setting “HEPG2TOX_HILL_SLOPE 0.281, HEPG2TOX_R_SQUARED 0.366, PBLUC_HILL_SLOPE 7.23, PBLUC_R_SQUARED 0.542, read-out: LUCIFERASE INFECTION ASSAY - IC50”, the IC50 was 3.58 µM.

Consider `Cc1cc(C(=O)CN2C(=O)NC(C)(c3ccc(C(C)(C)C)cc3)C2=O)c(C)n1C` (centres undefined), for which the IC90 was more than 10 µM. Moreover, the IC50 under setting [1] was more than 10 µM.

As for `Cc1ccc(NC(=O)c2ccc(S(=O)(=O)N3CCOCC3)o2)cc1Cl`, the IC90 was more than 10 µM. For the same molecule, the half-inhibitory concentration (IC50) under setting [1] is more than 10 µM.

For the molecule `O=C(NNC(=O)c1csc(COc2ccccc2Cl)n1)c1ccc(Cl)cc1`, the IC90 came to 7.14 µM. Further, where the note is “FFLUC_HILL_SLOPE 94.2, FFLUC_R_SQUARED 0.775, HEPG2TOX_HILL_SLOPE 11.4, HEPG2TOX_R_SQUARED 0.575, PBLUC_HILL_SLOPE 4.49, PBLUC_R_SQUARED 0.337, read-out: LUCIFERASE INFECTION ASSAY - IC50”, the IC50 was 4.37 µM.

On to `COc1cc(/C=C(/C(=O)c2cccc(Cl)c2)c2nc3ccccc3[nH]2)ccc1OCc1ccccc1`, for which the IC90 is more than 10 µM. Besides, under “HEPG2TOX_HILL_SLOPE 8.02, HEPG2TOX_R_SQUARED 0.115, read-out: LUCIFERASE INFECTION ASSAY - IC50”, the IC50 was more than 10 µM.

Regarding `O=C1N(CN2CCCCC2)c2ccc(Br)cc2C12OCCO2`, the concentration for an effect of 90% (IC90) is more than 8.99 µM. The IC50 under setting [1] was more than 8.99 µM.

Consider `COc1ccc(CCNC(=O)COC(=O)c2sc(C)nc2C)cc1`, for which the IC90 is more than 10 µM. For the same molecule, the IC50 under setting [1] was more than 10 µM.

For `O=C(Cn1cnc2sccc2c1=O)c1ccc(C2CCCCC2)cc1`, the IC90 was more than 10 µM. The IC50 (HEPG2TOX_HILL_SLOPE 0.627, HEPG2TOX_R_SQUARED 0.608, PBLUC_HILL_SLOPE 1.31, PBLUC_R_SQUARED 0.795, read-out: LUCIFERASE INFECTION ASSAY - IC50) was 2.58 µM.

`CC(C)c1ccc(NC(=O)C2=CN3CCN(Cc4ccccc4)C(=O)N=C3O2)cc1`: the IC90 was more than 10 µM. In addition, for the setting “FFLUC_HILL_SLOPE 11.9, FFLUC_R_SQUARED 0.0164, read-out: LUCIFERASE INFECTION ASSAY - IC50”, the half-maximal inhibitory concentration (IC50) was more than 10 µM.

As to `Cc1cc(C)cc(Nc2nc(=O)c(Cc3ccc(Cl)cc3)n[nH]2)c1`, the IC90 came out at 8.45 µM. The IC50 (FFLUC_HILL_SLOPE 1.04, FFLUC_R_SQUARED 0.238, PBLUC_HILL_SLOPE 2.61, PBLUC_R_SQUARED 0.421, read-out: LUCIFERASE INFECTION ASSAY - IC50) came out at 3.64 µM.

Consider `CN1C/C(=C\c2ccc(Cl)cc2)C(=O)/C(=C/c2ccc(Cl)cc2)C1`, for which the IC90 was more than 9.21 µM. Also, under setting [1], the IC50 turned out to be 7 µM.

As to `N#C/C(=N/Nc1ccc(OC(F)(F)F)cc1)C(N)=S`, the IC90 was 4.35 µM. For the same molecule, the IC50 (HEPG2TOX_HILL_SLOPE 2.59, HEPG2TOX_R_SQUARED 0.943, PBLUC_HILL_SLOPE 11.1, PBLUC_R_SQUARED 0.624, read-out: LUCIFERASE INFECTION ASSAY - IC50) amounted to 3.57 µM.

For `Cc1ccc(-n2c(Sc3ccc4nnnn4n3)nc3sc4c(c3c2=O)CCC(C)C4)cc1C` (centres undefined), the IC90 was more than 10 µM. In addition, under “FFLUC_HILL_SLOPE 3.23, FFLUC_R_SQUARED 0.696, PBLUC_HILL_SLOPE 2.23, PBLUC_R_SQUARED 0.861, read-out: LUCIFERASE INFECTION ASSAY - IC50”, the IC50 was 4.15 µM.

`CCOc1ccc(S(=O)(=O)Nc2cccc(C(=O)N3CCN(c4ccccn4)CC3)c2)cc1`: the concentration for an effect of 90% (IC90) was more than 10 µM. Further, the IC50 under setting [1] is more than 10 µM.

In the case of `CCOc1ccc(CN(C)CC(=O)NCCc2ccc(S(N)(=O)=O)cc2)cc1`, the IC90 is more than 10 µM. Under “HEPG2TOX_HILL_SLOPE 0.961, HEPG2TOX_R_SQUARED 0.961, PBLUC_HILL_SLOPE 1.57, PBLUC_R_SQUARED 0.525, read-out: LUCIFERASE INFECTION ASSAY - IC50”, the IC50 is 3.65 µM.

Regarding `Cn1c(Cl)cnc1CN1CCN(CC(=O)Nc2ccccc2Cl)CC1`, the 90% effect concentration (IC90) was more than 10 µM. Also, the IC50 under setting [1] is more than 10 µM.

With `Cc1cnc(C(=O)NNC(=O)CC23CC4CC(CC(C4)C2)C3)cn1`, the IC90 came to 9.85 µM. Moreover, the IC50 (HEPG2TOX_HILL_SLOPE 1.28, HEPG2TOX_R_SQUARED 0.86, PBLUC_HILL_SLOPE 19.8, PBLUC_R_SQUARED 0.188, read-out: LUCIFERASE INFECTION ASSAY - IC50) turned out to be 8.81 µM.

With `O=c1nc(-c2ccccn2)[nH]c2scc(-c3ccccc3)c12`, the IC90 turned out to be 2.25 µM. The IC50 (HEPG2TOX_HILL_SLOPE 1.76, HEPG2TOX_R_SQUARED 0.7, PBLUC_HILL_SLOPE 112, PBLUC_R_SQUARED 0.058, read-out: LUCIFERASE INFECTION ASSAY - IC50) amounted to 2.21 µM.

Take `CCN(c1ccccc1)S(=O)(=O)c1cc(NC(=O)CNCc2ccco2)ccc1Cl`: the IC90 is more than 10 µM. Further, the IC50 under setting [1] was more than 10 µM.

`Nc1nccc(/C=C/c2c(F)cccc2Cl)n1`: the concentration for an effect of 90% (IC90) was more than 13.2 µM. Moreover, under “HEPG2TOX_HILL_SLOPE 2, HEPG2TOX_R_SQUARED 0.972, PBLUC_HILL_SLOPE 2.11, PBLUC_R_SQUARED 0.172, read-out: LUCIFERASE INFECTION ASSAY - IC50”, the IC50 came out at 8.94 µM.

For the molecule `COC(=O)c1cc(C#N)c(SCC(=O)c2ccc(Cl)cc2)nc1C(OC)OC`, the IC90 is more than 7.84 µM. The IC50 under setting [1] is more than 7.84 µM.

Turning to `CN(CC(=O)Nc1ccc(Cl)c(C(F)(F)F)c1)Cc1ccc(O)c2ncccc12`, the IC90 is 0.191 µM. The IC50 under setting [1] came out at 0.0645 µM.

For `O=S(=O)(Nc1ccc(Oc2cc(C(F)(F)F)cc(C(F)(F)F)c2)cc1)c1cc(C(F)(F)F)cc(C(F)(F)F)c1`, the IC90 turned out to be 3.81 µM. Moreover, the IC50 (FFLUC_HILL_SLOPE 18.8, FFLUC_R_SQUARED 0.264, HEPG2TOX_HILL_SLOPE 15.6, HEPG2TOX_R_SQUARED 0.875, PBLUC_HILL_SLOPE 191, PBLUC_R_SQUARED 0.155, read-out: LUCIFERASE INFECTION ASSAY - IC50) came to 3.76 µM.

In the case of `CC(C)n1ncc2cc(C(=O)Nc3nc4c(s3)CCCC4)cnc21`, the IC90 is 0.68 µM. The IC50 (FFLUC_HILL_SLOPE 1.2, FFLUC_R_SQUARED 0.643, HEPG2TOX_HILL_SLOPE 0.617, HEPG2TOX_R_SQUARED 0.917, PBLUC_HILL_SLOPE 0.702, PBLUC_R_SQUARED 0.926, read-out: LUCIFERASE INFECTION ASSAY - IC50) amounted to 0.0298 µM.

For `CCc1ccc(CNCc2ccc3c(c2)OCO3)cc1`, the IC90 is more than 12.3 µM. Under setting [1], the IC50 was more than 12.3 µM.

`Cc1cc(C(=O)COC(=O)c2ccccc2C(F)(F)F)c(C)n1Cc1ccccc1Cl`: the 90% effect concentration (IC90) was 3.52 µM. For the same molecule, under “HEPG2TOX_HILL_SLOPE 0.164, HEPG2TOX_R_SQUARED 0.816, PBLUC_HILL_SLOPE 1.63, 0.884, PBLUC_R_SQUARED 0.848, 0.800, read-out: LUCIFERASE INFECTION ASSAY - IC50”, the IC50 came out at 0.696 µM.

`CC(Nc1ccnc2cc(Cl)ccc12)c1ccccc1Cl` (centres undefined): the IC90 came to 3.6 µM. Under “PBLUC_HILL_SLOPE 22.7, PBLUC_R_SQUARED 0.0753, read-out: LUCIFERASE INFECTION ASSAY - IC50”, the IC50 is 3.27 µM.

In the case of `CC1N(C)c2ccc(/C=C/c3nc4ccccc4s3)cc2C1(C)C` (centres undefined), the IC90 was found to be 4.73 µM. Moreover, the IC50 (HEPG2TOX_HILL_SLOPE 3.14, HEPG2TOX_R_SQUARED 0.947, PBLUC_HILL_SLOPE 1.36, 1.57, PBLUC_R_SQUARED 0.638, 0.693, read-out: LUCIFERASE INFECTION ASSAY - IC50) stood at 1.03 µM.
